# Read-outs that look alike come from different tables or passages of the source.
# Assays:
# [1] = Swelling of micro-capsules with single fragrance raw materials (mass fraction in swollen micro-capsule); format: physicochemical; conditions: micro-capsules of Example 4 swelled with excess raw material, 1 to 3 days
# Text: The capsules were allowed to swallow with an excess of the model-perfume (see Example 1) during 1 to 3 days. The swelled micro-particles were then separated from the remaining perfume by filtration and washed with ethanol. This experiment was repeated for various raw materials having various chemical functionalities or various polarities (i.e. LogP, P being the partition coefficient between octanol and water).
# [2] = LogP of fragrance raw materials (partition coefficient between octanol and water); format: physicochemical
# [3] = P = partition coefficient between octanol and water, read-out: LogP
Structure (SMILES),Fragrance mass fraction in the final swollen micro-capsule weight [%] [1],"logP [2, 3]",logP [2]
CC(=O)OCc1ccccc1 [Benzyl acetate],49.8%,1.57,
CC(C)=CCC/C(C)=C/CO [Geraniol],36.2%,3.59,
"O=C1CCCCCCCCC/C=C/CCCO1 [Habanolide ®, pentadecenolide]",50.3%,,5.37
CCCCCCOC(=O)c1ccccc1O [Hexyl salicylate],50.7%,4.91,

# — patent US7279542B2, “Polymeric particles and fragrance delivery systems” (Firmenich SA, priority 2003, dated 2007)
